± gives the expanded uncertainty stated by the source.
Settings: Liquid
[1] = 303.15 K, 10000 kPa, Concentric cylinders viscometry
[2] = 303.15 K, 10000 kPa, Falling or rolling sphere viscometry
[3] = 303.15 K, 15000 kPa, Concentric cylinders viscometry
[4] = 303.15 K, 15000 kPa, Falling or rolling sphere viscometry
[5] = 303.15 K, 25000 kPa, Concentric cylinders viscometry
[6] = 303.15 K, 25000 kPa, Falling or rolling sphere viscometry
[7] = 303.15 K, 50000 kPa, Concentric cylinders viscometry
[8] = 303.15 K, 50000 kPa, Falling or rolling sphere viscometry
[9] = 303.15 K, 75000 kPa, Concentric cylinders viscometry
[10] = 303.15 K, 75000 kPa, Falling or rolling sphere viscometry
[11] = 303.15 K, 100000 kPa, Falling or rolling sphere viscometry
[12] = 303.15 K, 125000 kPa, Falling or rolling sphere viscometry
[13] = 303.15 K, 150000 kPa, Falling or rolling sphere viscometry
[14] = 313.15 K, 10000 kPa, Falling or rolling sphere viscometry
[15] = 313.15 K, 15000 kPa, Falling or rolling sphere viscometry
[16] = 313.15 K, 25000 kPa, Falling or rolling sphere viscometry
[17] = 313.15 K, 50000 kPa, Concentric cylinders viscometry
[18] = 313.15 K, 50000 kPa, Falling or rolling sphere viscometry
[19] = 313.15 K, 75000 kPa, Concentric cylinders viscometry
[20] = 313.15 K, 75000 kPa, Falling or rolling sphere viscometry
[21] = 313.15 K, 100000 kPa, Falling or rolling sphere viscometry
[22] = 313.15 K, 125000 kPa, Falling or rolling sphere viscometry
[23] = 313.15 K, 150000 kPa, Falling or rolling sphere viscometry
[24] = 323.15 K, 10000 kPa, Falling or rolling sphere viscometry
[25] = 323.15 K, 15000 kPa, Falling or rolling sphere viscometry
[26] = 323.15 K, 25000 kPa, Falling or rolling sphere viscometry
[27] = 323.15 K, 50000 kPa, Falling or rolling sphere viscometry
[28] = 323.15 K, 75000 kPa, Falling or rolling sphere viscometry
[29] = 323.15 K, 100000 kPa, Falling or rolling sphere viscometry
[30] = 323.15 K, 125000 kPa, Falling or rolling sphere viscometry
[31] = 323.15 K, 150000 kPa, Falling or rolling sphere viscometry
[32] = 333.15 K, 10000 kPa, Falling or rolling sphere viscometry
[33] = 333.15 K, 15000 kPa, Falling or rolling sphere viscometry
[34] = 333.15 K, 25000 kPa, Falling or rolling sphere viscometry
[35] = 333.15 K, 50000 kPa, Falling or rolling sphere viscometry
[36] = 333.15 K, 75000 kPa, Falling or rolling sphere viscometry
[37] = 333.15 K, 100000 kPa, Falling or rolling sphere viscometry
[38] = 333.15 K, 125000 kPa, Falling or rolling sphere viscometry
[39] = 333.15 K, 150000 kPa, Falling or rolling sphere viscometry
[40] = 343.15 K, 10000 kPa, Falling or rolling sphere viscometry
[41] = 343.15 K, 15000 kPa, Falling or rolling sphere viscometry
[42] = 343.15 K, 25000 kPa, Falling or rolling sphere viscometry
[43] = 343.15 K, 50000 kPa, Falling or rolling sphere viscometry
[44] = 343.15 K, 75000 kPa, Falling or rolling sphere viscometry
[45] = 343.15 K, 100000 kPa, Falling or rolling sphere viscometry
[46] = 343.15 K, 125000 kPa, Falling or rolling sphere viscometry
[47] = 343.15 K, 150000 kPa, Falling or rolling sphere viscometry
[48] = 353.15 K, 10000 kPa, Falling or rolling sphere viscometry
[49] = 353.15 K, 15000 kPa, Falling or rolling sphere viscometry
[50] = 353.15 K, 25000 kPa, Falling or rolling sphere viscometry
[51] = 353.15 K, 50000 kPa, Falling or rolling sphere viscometry
[52] = 353.15 K, 75000 kPa, Falling or rolling sphere viscometry
[53] = 353.15 K, 100000 kPa, Falling or rolling sphere viscometry
[54] = 353.15 K, 125000 kPa, Falling or rolling sphere viscometry
[55] = 353.15 K, 150000 kPa, Falling or rolling sphere viscometry

CCCC[N+]1(C)CCCC1.O=S(=O)([O-])C(F)(F)F [1-butyl-1-methylpyrrolidinium trifluoromethanesulfonate]
viscosity [1]: 147.2 ± 20 mPa·s | viscosity [2]: 144.8 ± 7.1 mPa·s | viscosity [3]: 158.4 ± 21 mPa·s | viscosity [4]: 154.3 ± 7.8 mPa·s | viscosity [5]: 181.8 ± 19 mPa·s | viscosity [6]: 174.9 ± 9.3 mPa·s | viscosity [7]: 249.5 ± 26 mPa·s | viscosity [8]: 236.9 ± 14 mPa·s | viscosity [9]: 341.1 ± 36 mPa·s | viscosity [10]: 317.7 ± 22 mPa·s | viscosity [11]: 422.8 ± 32 mPa·s | viscosity [12]: 559.5 ± 46 mPa·s | viscosity [13]: 737.7 ± 67 mPa·s | viscosity [14]: 89.2 ± 3.6 mPa·s | viscosity [15]: 94.8 ± 4 mPa·s | viscosity [16]: 106.9 ± 4.7 mPa·s | viscosity [17]: 148.1 ± 16 mPa·s | viscosity [18]: 142.7 ± 7 mPa·s | viscosity [19]: 202.2 ± 22 mPa·s | viscosity [20]: 188.1 ± 10 mPa·s | viscosity [21]: 245.4 ± 15 mPa·s | viscosity [22]: 318.1 ± 22 mPa·s | viscosity [23]: 410.1 ± 30 mPa·s | viscosity [24]: 58.9 ± 2.2 mPa·s | viscosity [25]: 62.5 ± 2.3 mPa·s | viscosity [26]: 70.2 ± 2.7 mPa·s | viscosity [27]: 92.3 ± 3.8 mPa·s | viscosity [28]: 119.5 ± 5.4 mPa·s | viscosity [29]: 153 ± 7.7 mPa·s | viscosity [30]: 194.1 ± 11 mPa·s | viscosity [31]: 244.7 ± 15 mPa·s | viscosity [32]: 41.7 ± 1.6 mPa·s | viscosity [33]: 43.9 ± 1.6 mPa·s | viscosity [34]: 48.6 ± 1.8 mPa·s | viscosity [35]: 62.3 ± 2.3 mPa·s | viscosity [36]: 79 ± 3.1 mPa·s | viscosity [37]: 99.6 ± 4.2 mPa·s | viscosity [38]: 124.9 ± 5.8 mPa·s | viscosity [39]: 156 ± 7.9 mPa·s | viscosity [40]: 29.9 ± 1.1 mPa·s | viscosity [41]: 31.4 ± 1.2 mPa·s | viscosity [42]: 34.7 ± 1.3 mPa·s | viscosity [43]: 44.2 ± 1.6 mPa·s | viscosity [44]: 55.7 ± 2 mPa·s | viscosity [45]: 69.6 ± 2.6 mPa·s | viscosity [46]: 86.4 ± 3.5 mPa·s | viscosity [47]: 106.8 ± 4.6 mPa·s | viscosity [48]: 22.5 ± 0.8 mPa·s | viscosity [49]: 23.7 ± 0.9 mPa·s | viscosity [50]: 26.1 ± 1 mPa·s | viscosity [51]: 32.7 ± 1.2 mPa·s | viscosity [52]: 40.5 ± 1.5 mPa·s | viscosity [53]: 49.4 ± 1.8 mPa·s | viscosity [54]: 59.9 ± 2.2 mPa·s | viscosity [55]: 72 ± 2.8 mPa·s

CC(C)CCCC(C)CCCC(C)CCCCC(C)CCCC(C)CCCC(C)C (configuration not stated) [2,6,10,15,19,23-hexamethyltetracosane]
viscosity [2]: 27.4 ± 1 mPa·s | viscosity [4]: 30.8 ± 1.1 mPa·s | viscosity [6]: 38.2 ± 1.4 mPa·s | viscosity [8]: 62.7 ± 2.3 mPa·s | viscosity [10]: 98.5 ± 4.1 mPa·s | viscosity [11]: 150.8 ± 7.4 mPa·s | viscosity [12]: 227.4 ± 13 mPa·s | viscosity [13]: 339.5 ± 23 mPa·s | viscosity [14]: 18.4 ± 0.7 mPa·s | viscosity [15]: 20.4 ± 0.7 mPa·s | viscosity [16]: 24.8 ± 0.9 mPa·s | viscosity [18]: 39.1 ± 1.4 mPa·s | viscosity [20]: 59.5 ± 2.2 mPa·s | viscosity [21]: 88.7 ± 3.5 mPa·s | viscosity [22]: 130.3 ± 6.1 mPa·s | viscosity [23]: 189.8 ± 10 mPa·s | viscosity [24]: 13 ± 0.5 mPa·s | viscosity [25]: 14.3 ± 0.5 mPa·s | viscosity [26]: 17.1 ± 0.6 mPa·s | viscosity [27]: 26.1 ± 1 mPa·s | viscosity [28]: 38.7 ± 1.4 mPa·s | viscosity [29]: 56.3 ± 2 mPa·s | viscosity [30]: 80.9 ± 3.1 mPa·s | viscosity [31]: 115.4 ± 5.1 mPa·s | viscosity [32]: 9.2 ± 0.3 mPa·s | viscosity [33]: 10.1 ± 0.4 mPa·s | viscosity [34]: 12.1 ± 0.4 mPa·s | viscosity [35]: 18.2 ± 0.7 mPa·s | viscosity [36]: 26.5 ± 1 mPa·s | viscosity [37]: 37.8 ± 1.4 mPa·s | viscosity [38]: 53.2 ± 1.9 mPa·s | viscosity [39]: 74 ± 2.8 mPa·s | viscosity [40]: 7 ± 0.3 mPa·s | viscosity [41]: 7.6 ± 0.3 mPa·s | viscosity [42]: 9 ± 0.3 mPa·s | viscosity [43]: 13.3 ± 0.5 mPa·s | viscosity [44]: 19 ± 0.7 mPa·s | viscosity [45]: 26.7 ± 1 mPa·s | viscosity [46]: 37 ± 1.3 mPa·s | viscosity [47]: 50.8 ± 1.8 mPa·s | viscosity [48]: 5.4 ± 0.2 mPa·s | viscosity [49]: 5.9 ± 0.2 mPa·s | viscosity [50]: 6.9 ± 0.3 mPa·s | viscosity [51]: 10.1 ± 0.4 mPa·s | viscosity [52]: 14.2 ± 0.5 mPa·s | viscosity [53]: 19.5 ± 0.7 mPa·s | viscosity [54]: 26.4 ± 1 mPa·s | viscosity [55]: 35.5 ± 1.3 mPa·s

CCCC[N+]1(C)CCCC1.FC(F)(F)C(F)(F)[P-](F)(F)(F)(C(F)(F)C(F)(F)F)C(F)(F)C(F)(F)F
viscosity [1]: 198.9 ± 21 mPa·s | viscosity [2]: 189.5 ± 10 mPa·s | viscosity [3]: 221.8 ± 23 mPa·s | viscosity [4]: 212.4 ± 12 mPa·s | viscosity [5]: 273.1 ± 29 mPa·s | viscosity [6]: 265.5 ± 17 mPa·s | viscosity [7]: 465.5 ± 50 mPa·s | viscosity [8]: 454.7 ± 35 mPa·s | viscosity [9]: 791.6 ± 86 mPa·s | viscosity [10]: 765.1 ± 70 mPa·s | viscosity [11]: 1274 ± 140 mPa·s | viscosity [12]: 2111 ± 270 mPa·s | viscosity [13]: 3485 ± 500 mPa·s | viscosity (313.15 K, 10000 kPa, Concentric cylinders viscometry): 118.9 ± 13 mPa·s | viscosity [14]: 113.5 ± 5 mPa·s | viscosity (313.15 K, 15000 kPa, Concentric cylinders viscometry): 131.3 ± 14 mPa·s | viscosity [15]: 124.7 ± 5.7 mPa·s | viscosity (313.15 K, 25000 kPa, Concentric cylinders viscometry): 162.6 ± 17 mPa·s | viscosity [16]: 150.6 ± 7.4 mPa·s | viscosity [17]: 263.5 ± 28 mPa·s | viscosity [18]: 241.3 ± 15 mPa·s | viscosity [19]: 434.8 ± 47 mPa·s | viscosity [20]: 386.8 ± 28 mPa·s | viscosity [21]: 620.3 ± 53 mPa·s | viscosity [22]: 995.1 ± 100 mPa·s | viscosity [23]: 1597 ± 190 mPa·s | viscosity [24]: 73.4 ± 2.8 mPa·s | viscosity [25]: 80 ± 3.1 mPa·s | viscosity [26]: 94.9 ± 3.9 mPa·s | viscosity [27]: 145.4 ± 7.1 mPa·s | viscosity (323.15 K, 75000 kPa, Concentric cylinders viscometry): 234.7 ± 33 mPa·s | viscosity [28]: 222.6 ± 13 mPa·s | viscosity [29]: 340.5 ± 24 mPa·s | viscosity [30]: 520.9 ± 42 mPa·s | viscosity [31]: 797 ± 75 mPa·s | viscosity [32]: 48 ± 1.7 mPa·s | viscosity [33]: 52 ± 1.9 mPa·s | viscosity [34]: 61 ± 2.2 mPa·s | viscosity [35]: 90.7 ± 3.6 mPa·s | viscosity [36]: 134.3 ± 6.3 mPa·s | viscosity [37]: 198.1 ± 11 mPa·s | viscosity [38]: 291.7 ± 19 mPa·s | viscosity [39]: 429.1 ± 32 mPa·s | viscosity [40]: 33.9 ± 1.2 mPa·s | viscosity [41]: 36.5 ± 1.3 mPa·s | viscosity [42]: 42.2 ± 1.5 mPa·s | viscosity [43]: 60.5 ± 2.2 mPa·s | viscosity [44]: 86.9 ± 3.4 mPa·s | viscosity [45]: 124.5 ± 5.7 mPa·s | viscosity [46]: 178.5 ± 9.5 mPa·s | viscosity [47]: 255.8 ± 16 mPa·s | viscosity [48]: 24.7 ± 0.9 mPa·s | viscosity [49]: 26.6 ± 1 mPa·s | viscosity [50]: 30.7 ± 1.1 mPa·s | viscosity [51]: 43.4 ± 1.6 mPa·s | viscosity [52]: 60.6 ± 2.2 mPa·s | viscosity [53]: 84.1 ± 3.3 mPa·s | viscosity [54]: 116 ± 5.1 mPa·s | viscosity [55]: 159.3 ± 8.1 mPa·s

From the NIST ThermoML archive (doi:10.1016/j.jct.2015.03.002)
